Source: paper PMC12013085, “Peptides targeting RAB11A–FIP2 complex inhibit HPIV3, RSV, and IAV replication as broad-spectrum antivirals” (Cell & Bioscience, 2025)
Like-named read-outs stand apart in the source and are kept apart here.

Assays:
[1] = system: HPIV3
[2] = system: HPIV3; assay: Late-stage HPIV3 replication with cytoskeleton inhibitors (TCID50, RT-qPCR, WB); details: HeLa cells infected 18 h, then inhibitor for 6 h; for viral RNA synthesis and protein expression levels: RT-qPCR and WB; for HPIV3 virions in the supernatant / intracellular progeny virus particles: TCID50 at 24 hpi
Description: To investigate the role of the cytoskeleton in the later stages of infection, HeLa cells were infected with HPIV3 for 18 h before being treated with the inhibitors for an additional 6 h.
A–D Impact of cytoskeleton inhibitors on HPIV3 replication. HeLa cells infected with HPIV3 for 18 h were treated with Nocodazole (NCZ) or Cytochalasin D (Cyto D). At 24 h post infection (hpi), the virions released in the cell supernatant (A) and the quantity of intracellular progeny virus particles (B) were determined by TCID50 assays. Cells were collected for RT-qPCR analysis of intracellular viral RNA (C), and Western Blot (WB) analysis of intracellular viral protein (D). […] All experiments were independently repeated at least twice with reproducible results. Statistical significance (*p < 0.05, **p < 0.01, ***p < 0.001) was determined by two-sided unpaired t test. Data are means ± SEM

[3] = system: HPIV3 VLPs in 293T cells; assay: HPIV3 VLP budding and plasma membrane fraction assay, WB; format: cell-based; details: 293T cells transfected with N, P, M plasmids 30 h, inhibitor for 6 h
Description: Data are presented as means ± SEM
The cell lysates were prepared as described for the Western blot (WB) analysis. The supernatant was harvested and clarified by centrifugation at 12,000×g for 5 min. Subsequently, the supernatant was pelleted through a 20% sucrose cushion at 4 °C at 35,000 rpm for 2 h. The VLP pellets obtained were resuspended in PBS and boiled with SDS-PAGE loading buffer at 100 °C for 10 min. Both the cell lysates and the supernatants were then subjected to WB analysis.
293T cells, cultured in 6-cm dishes, were transfected with the indicated plasmids for 24 h. Cell collection was performed through centrifugation at 500×g for 5 min at 4 °C. Subsequently, cytosol, organelle membrane, and plasma membrane-associated proteins were extracted sequentially using the MinuteTM plasma membrane protein isolation and cell fractionation kit (INVENT), following the manufacturer's instructions.

[4] = system: HeLa cells; assay: Cellular uptake of FITC-labeled RBD, fluorescent microscopy; format: in vitro ADME; details: 5 μM FITC-labeled RBD, with or without HPIV3HA-P infection, fluorescent microscopy at 24 hpi
Description: Supplementary file 13578_2025_1384_MOESM4_ESM.tif: Supplementary Material 4. Fig. S4. Cell penetration, cytotoxicity, and anti-HPIV3 activity of RBD in different cell lines. (A) Cellular uptake of FITC-labeled RBD in HeLa Cells. HeLa cells were exposed to 5 μM FITC-labeled RBD in the absence or presence of HPIV3HA-P infection, and analyzed by fluorescent microscopy at 24 hpi. RBD (green), HPIV3HA-P (red), and nuclei were stained with DAPI. Scale bar, 50 μm. (B to F) Cytotoxicity of RBD in various cell lines. Cell viability was assessed in HeLa (B), A549 (C), MK2 (D), MDCK (E) and HEp-2 cells (F) treated with increasing concentrations of […] for 24 h using the CCK-8 assay. (G to I) Antiviral efficacy of RBD against HPIV3 in different cell lines. A549 (G), MK2 (H) and MDCK (I) cells were treated with 2-fold-increasing concentrations of RBD for 24h, and viral titers in the cell supernatant were determined by TCID50. […] Data are means ± SEM.

[5] = system: HeLa, A549, MK2, MDCK and HEp-2 cells; details: CCK-8, 24 h treatment, in the tested cell lines (HeLa, A549, MK2, MDCK, HEp-2)
[6] = system: WSN virus; format: in vivo, BALB/c mice; details: 20 mg/kg i.p. once daily Day 0 to Day 4, positive control, n = 5

N=C(N)NCCC[C@H](NC(=O)[C@H](CCCNC(=N)N)NC(=O)[C@H](CCCNC(=N)N)NC(=O)[C@H](CCC(N)=O)NC(=O)[C@H](CCCNC(=N)N)NC(=O)[C@H](CCCNC(=N)N)NC(=O)[C@H](CCCCN)NC(=O)[C@H](CCCCN)NC(=O)[C@@H](N)CCCNC(=N)N)C(=O)O [Tat, reference compound]
antiviral effect on HPIV3 infection (in words) ([1]; HeLa cells, escalating concentrations, 24 hpi, WB and TCID50): no discernible antiviral effect

C=C1[C@@H](C)[C@H]2[C@H](Cc3ccccc3)NC(=O)[C@]23[C@H](OC(C)=O)/C=C/[C@@](C)(O)C(=O)[C@@H](C)C/C=C/[C@H]3[C@@H]1O [Cyto D, Cytochalasin D]
viral RNA synthesis and protein expression levels [2]: unaffected | HPIV3 virions in the supernatant [2]: significant reduction | intracellular progeny virus particles [2]: decrease | VLP production [3]: substantial impact

THIRELEDYIDNLLVRVMEETPSILRVPRKKRRQRRR [RBD]
cell penetration (cellular uptake) [4]: efficiently penetrated HeLa cells | SI (CC50/IC50), HPIV3, A549 ([1]; A549 cells): > 21.55 | SI (CC50/IC50), HPIV3, HeLa ([1]; HeLa cells): > 23.08 | SI (CC50/IC50), HPIV3, MDCK ([1]; MDCK cells): > 15.37 | SI (CC50/IC50), HPIV3, MK2 ([1]; MK2 cells): > 27.68 | IC50 ([1]; read-out: IC50, HPIV3, A549): 3.48 µM | IC50 ([1]; read-out: IC50, HPIV3, HeLa): 3.25 µM | IC50 ([1]; read-out: IC50, HPIV3, MDCK): 4.88 µM | IC50 ([1]; read-out: IC50, HPIV3, MK2): 2.71 µM | CC50 [5]: > 75 µM

COC(=O)Nc1nc2ccc(C(=O)c3cccs3)cc2[nH]1 [NCZ, Nocodazole]
viral RNA synthesis and protein expression levels [2]: unaffected | HPIV3 virions in the supernatant [2]: significant reduction | intracellular progeny virus particles [2]: decrease | VLP production [3]: modest effect

CCOC(=O)C1=C[C@@H](OC(CC)CC)[C@H](NC(C)=O)[C@@H](N)C1 [Osel, Oseltamivir, reference compound]
protection against morbidity and mortality, IAV (WSN) [6]: complete protection against morbidity and mortality
